Reference: patent US20230287510A1, “COMPOSITIONS, PANELS, AND METHODS FOR CHARACTERIZING CHRONIC LYMPHOCYTIC LEUKEMIA” (The Broad Institute, Inc., priority 2020, published 2023)
*1 amine or outer side, *2 acyl side, *3 side chain or, on linkers, in order; H or OH if unused. Where a SMILES comes first, the peptide text is derived from it. Bridges are numbered along the chain shown (N, C = ends). Roman numbers before positions name the chains, in order. [ ]: non-standard residue; d: D form. Actinocin(9to1) = Cc1c2oc3c(C)ccc(C(=O)[*:1])c3nc-2c(C(=O)[*:2])c(N)c1=O; NMeV = CN[C@H](C(=O)O)C(C)C; Sar = CNCC(=O)O

System: chronic lymphocytic leukemia (CLL) samples classified by expression subtype (Ec-i, EC-m1, EC-m2, EC-m3, EC-m4, EC-o, EC-u1, EC-u2)
Test: Ex-vivo drug sensitivity (percent viability) of CLL samples compared between expression subtypes (ECs); for Mean viability in the EC: test concentration or dose not given here; for Mean viability in the other ECs: test concentration or dose not given here
Assay type: cell-based
Description: An analysis was completed to determine whether the expression clusters (ECs) can be used to predict the resistance and sensitivity of different chronic lymphocytic leukemias to various drugs. […] The expression subtypes were then used with the drug sensitivity data to compare the percent […] of samples in each expression cluster to the percent viability of samples in all other expression clusters.

SMILES	Mean viability in the other ECs (all ECs other than EC-m4)	Drug response associated with the EC (expression cluster EC-m4)	Mean viability in the EC (expression cluster EC-m4)	Mean viability in the other ECs (all ECs other than EC-u1)	Drug response associated with the EC (expression cluster EC-u1)	Mean viability in the EC (expression cluster EC-u1)	Mean viability in the other ECs (all ECs other than EC-m3)	Mean viability in the EC (expression cluster EC-m3)	Mean viability in the other ECs (all ECs other than EC-u2)	Mean viability in the EC (expression cluster EC-u2)	further results
CC(C)(C)c1cnc(CSc2cnc(NC(=O)C3CCNCC3)s2)o1 [SNS-032]	0.73	Sensitive	0.66								
COc1cc(N2CCC(N3CCN(C)CC3)CC2)ccc1Nc1ncc(Cl)c(Nc2ccccc2S(=O)(=O)C(C)C)n1 [TAE684]	1.01	Resistant	1.04	1.03	Sensitive	0.98					Mean viability in the other ECs (all ECs other than EC-m1): 1.01; Drug response associated with the EC (expression cluster EC-m1): Resistant; Mean viability in the EC (expression cluster EC-m1): 1.07
COCCn1c2c([n+](Cc3cnccn3)c1C)C(=O)c1ccccc1C2=O [YM155]				0.64	Sensitive	0.53					
Cc1c2oc3c(C)ccc(C(=O)N[C@@H]4C(=O)N[C@H](C(C)C)C(=O)N5CCC[C@H]5C(=O)N(C)CC(=O)N(C)[C@@H](C(C)C)C(=O)O[C@@H]4C)c3nc-2c(C(=O)N[C@@H]2C(=O)N[C@H](C(C)C)C(=O)N3CCC[C@H]3C(=O)N(C)CC(=O)N(C)[C@@H](C(C)C)C(=O)O[C@@H]2C)c(N)c1=O [actinomycin D] (I: T[dV]P[Sar][NMeV] / II: T[dV]P[Sar][NMeV]; ester I:1-I:C, II:1-II:C; linker I:N-II:N via Actinocin(9to1))				0.27	Resistant	0.37					
CN(C)C/C=C/C(=O)Nc1cc2c(Nc3ccc(F)c(Cl)c3)ncnc2cc1O[C@H]1CCOC1 [afatinib]	1.09		1.02				1.08	1.03			
CC[C@H]1CN2CCc3cc(OC)c(OC)cc3[C@@H]2C[C@@H]1C[C@H]1NCCc2cc(O)c(OC)cc21 [cephaeline]									0.82	0.72	
C/C1=C\[C@@H](C)C/C=C/[C@H]2[C@@H]3O[C@]3(C)[C@@H](C)[C@H]3[C@H](Cc4c[nH]c5ccccc45)NC(=O)[C@]32C(=O)/C=C/C(=O)[C@@H]1O [chaetoglobosin A]							1.07	0.98			Drug response associated with the EC (expression cluster EC-m3): Sensitive
C[C@H](Nc1ncnc2[nH]cnc12)c1cc2cccc(Cl)c2c(=O)n1-c1ccccc1 [duvelisib]	0.87	Resistant	0.94	0.90	Sensitive	0.85	0.88	0.95	0.89	0.73	Drug response associated with the EC (expression cluster EC-m3): Resistant; Drug response associated with the EC (expression cluster EC-u2): Sensitive
CO[C@H]1C[C@@H]2CC[C@@H](C)[C@@](O)(O2)C(=O)C(=O)N2CCCC[C@H]2C(=O)O[C@H]([C@H](C)C[C@@H]2CC[C@@H](OCCO)[C@H](OC)C2)CC(=O)[C@H](C)/C=C(\C)[C@@H](O)[C@@H](OC)C(=O)[C@H](C)C[C@H](C)/C=C/C=C/C=C/1C [everolimus]				0.95	Resistant	0.99					
CC[C@H](Nc1ncnc2nc[nH]c12)c1nc2cccc(F)c2c(=O)n1-c1ccccc1 [idelalisib]	0.93	Resistant	0.99	0.96	Sensitive	0.90	0.93	1.02	0.95	0.79	Drug response associated with the EC (expression cluster EC-m3): Resistant; Drug response associated with the EC (expression cluster EC-u2): Sensitive
CC1(C)CCC(c2ccc(Cl)cc2)=C(CN2CCN(c3ccc(C(=O)NS(=O)(=O)c4ccc(N[C@H](CCN5CCOCC5)CSc5ccccc5)c(S(=O)(=O)C(F)(F)F)c4)cc3)CC2)C1 [navitoclax]				0.82	Resistant	0.89					
C=C(C)[C@H]1Cc2c(ccc3c2O[C@@H]2COc4cc(OC)c(OC)cc4[C@@H]2C3=O)O1 [rotenone]	0.77	Sensitive	0.67						0.74	0.92	Mean viability in the other ECs (all ECs other than EC-i): 0.77; Drug response associated with the EC (expression cluster EC-i): Sensitive; Mean viability in the EC (expression cluster EC-i): 0.63; Drug response associated with the EC (expression cluster EC-u2): Resistant
CN1CCN(CCOc2cc(OC3CCOCC3)c3c(Nc4c(Cl)ccc5c4OCO5)ncnc3c2)CC1 [saracatinib]											Mean viability in the other ECs (all ECs other than EC-i): 1.07; Mean viability in the EC (expression cluster EC-i): 1.13
